Test results reported in patent publication US5238838A (Degussa Aktiengesellschaft, priority 1991, dated 1993).
Entries after “also recorded” stand apart in the source; their conditions may differ. Where a SMILES comes first, the peptide text is derived from it.

Key:
L-carnitine amidase [1] = assay: Substrate spectrum of L-carnitine amidase; assay type: biochemical, strain DSM 6230; conditions: for Rel. activity (%): substrate 50 mM, 30° C., 100 mM potassium phosphate buffer pH 8
Protocol: The enzyme test was carried out at 30° C. in 100 mM potassium phosphate buffer pH 8. The substrate concentration was 50 mM.

strain DSM 6230 = assay: Growth of strain DSM 6230 on the test substances (OD660); assay type: cell-based; conditions: for OD660: 5 g/l of the substance in minimum medium with 1.0 g/l yeast extract, 36 h, 30° C.; for Growth of the strain on the substance (in words): strain DSM 6230
Protocol: 1367 strains were isolated during the screening program. These strains were incubated in 100 ml Erlenmeyer flasks containing 20 ml of the particular enrichment medium in a rotary agitator at 30° C. and 120 rpms. The optical density at 660 nm was taken as an indication for the cell growth.
(§1) In this test, various substances were examined for their induction action. At the same time, the growth on these compounds was followed. The medium used was a minimum medium with 1.0 g/l instead of 0.5 g/l yeast extract, to which 5 g/l of the substance to be tested were added in each instance. The culture without inductor contained 5 g/l yeast extract. All tests were carried out with 20 ml shaking cultures which were incubated 36 h at 30° C. and 120 rpms in a rotating [round]shaking machine. These cultures were inoculated with 1% of an initial culture of strain DSM 6230. L-carnitine amide was used as substrate for the enzyme test.
(§2) At the same time, the growth of the bacteria was followed in these carnitine amide concentrations. The culture conditions corresponded to those in example 3.

L-carnitine amidase [2] = assay: Test for the induction of L-carnitine amidase; assay type: cell-based, strain DSM 6230; conditions: for Activity (mU/mg) / Activity (mU/ml): 5 g/l of the substance as inductor, 36 h, L-carnitine amide as substrate; for Induction of L-carnitine amidase (in words): strain DSM 6230
Protocol: as §1, §2

[3] = tested on: carnitine amidase (raw extract of strain DSM 6230); assay: Activity test of the raw extract of strain DSM 6230 with enantiomerically pure D- and L-carnitine amide; assay type: biochemical; conditions: raw extract of strain DSM 6230; labelled amide as substrate, 50 mM; 30° C.
Protocol: After 3 days, the contents of the shaking flasks were centrifuged (10 min., 10000 rpms in a refrigerated centrifuge), and the sedimentated cells were taken up in 100 mM potassium phosphate buffer pH 7.5 (an approximately 20% microorganism suspension was produced).
The microorganisms in this suspension must be macerated in the customary manner (e.g. agitation with fine glass beads or ultrasound treatment). The cell maceration was carried out by means of wet grinding with glass beads (diameter 0.3 mm; 2 g beads per 1 ml cell suspension). The glass beads and the coarse cell fragments were centrifuged off by means of centrifugation in a refrigerated centrifuge (5 min. 12000 rpms). The clear supernatant was designated as raw extract and used for further experiments.
The materials for the activity test contained:
400 μl potassium phosphate buffer 0.1 M, pH 7.5
50 μl substrate in 0.1 M potassium phosphate buffer, pH 7.5
50 μl enzyme solution (raw extract)
The following were used as substrates:
a) DL-carnitine amide final concentration in the test 100 mM
b) D-carnitine amide final concentration in the test 50 mM c) L-carnitine amide final concentration in the test 50 mM
The enzyme test was carried out in 1.5 ml Eppendorf vessels at a temperature of 30° C. The reaction was started by the addition of enzyme solution and stopped by acidification. The precipitated protein was centrifuged off (Eppendorf centrifuge 5 min. 12500 rpms) and the supernatant examined. In order to determine the blank reading, a control specimen for the substrate and the enzyme solution was always used.
The definition of the enzyme unit is 1 mU=1 nM converted substrate per minute.
L-carnitine can be determined enzymatically with the carnitine acetyl transferase. The ammonia was determined on the one hand photometrically as indophenol and on the other hand enzymatically with the aid of glutamate dehydrogenase.
The raw extract of this strain was tested with enantiomerically pure D- and L-carnitine amide:
The raw extract was retested for D- and L-carnitine amide and the enzyme test was stopped after 10 min. (there is still sufficient L-carnitine amide in the test batch) and after 5 hours (the L-carnitine amide has reacted to a great extent or completely). The L-amidase activity, relative to the total amidase activity, was 100% after 10 min. and still over 99% after 5 hours.

[4] = tested on: 20% cell suspension of the strain DSM 6230; assay: Conversion with whole cells; assay type: cell-based
Text: The conversion with whole cells was examined by carrying out the customary enzyme test with a 20% cell suspension of the strain DSM 6230. Result: L-carnitine amide is converted by whole cells with 64% greater activity than by a macerated cell suspension of the same concentration. D-carnitine is not converted. It is therefore to be expected that the conversion of L-carnitine amide to L-carnitine can also be carried out very well by means of immobilized microorganisms. […] Suitable microorganism immobilizates are immobilizates based on alginate or chitosan.

| Structure (SMILES) | Rel. activity (%) (L-carnitine amidase [1]) | OD660 (strain DSM 6230) | Activity (mU/mg) (L-carnitine amidase [2]) | Activity (mU/ml) (L-carnitine amidase [2]) | also measured |
| --- | --- | --- | --- | --- | --- |
| C[N+](C)(C)C[C@@H](O)CC#N [D-carnitine nitrile] | 0% | 0.8 | 90 mU/mg | 206 mU/ml | – |
| NCC(=O)NCC(N)=O [Gly-Gly-NH2] | 0% | – | – | – | – |
| CC(N)=O [Acetamide] | 0% | 1.0 | 0 mU/mg | 0 mU/ml | – |
| NC(=O)CNC(=O)[C@@H](N)Cc1ccc(O)cc1 [L-Tyr-Gly-NH2] | 0% | – | – | – | – |
| CC[C@H](C)[C@H](N)C(N)=O [L-Ile-NH2] | 0% | – | – | – | – |
| CC(C)[C@H](N)C(=O)N[C@@H](Cc1ccccc1)C(N)=O [L-Val-L-Phe-NH2] (H-Val-Phe-NH2) | 0% | – | – | – | – |
| CC(C)C(N)=O [Isobutyramide] | 0% | 1.1 | 41 mU/mg | 193 mU/ml | – |
| C[N+](C)(C)C[C@H](O)CC#N [L-carnitine nitrile] | 0% | 0.8 | 65 mU/mg | 183 mU/ml | – |
| C[N+](C)(C)C[C@@H](O)CC(N)=O [D-carnitine amide] | 0% | 0.8 | 166 mU/mg | 497 mU/ml | Activity (mU/mg) [3]: 0 mU/mg; Activity (mU/ml) [3]: 0 mU/ml; Hydrolysis / conversion by L-carnitine amidase (in words) (L-carnitine amidase [1]): does not hydrolyze |
| CCC(N)=O [Propionamide] | 0% | 1.1 | 29 mU/mg | 129 mU/ml | – |
| NC(=O)[C@@H](N)Cc1c[nH]cn1 [L-His-NH2] | 0% | – | – | – | – |
| CC(C)[C@H](N)C(N)=O [L-valine amide] | 0% | 0.9 | 12 mU/mg | 32 mU/ml | – |
| NC(=O)[C@@H](N)Cc1ccc(O)cc1 [L-Tyr-NH2] | 0% | – | – | – | – |
| C=CC(N)=O [Acrylamide] | 0% | 0.8 | 136 mU/mg | 170 mU/ml | – |
| NCC(N)=O [Glycine amide] | 0% | 1.0 | 43 mU/mg | 180 mU/ml | Growth of the strain on the substance (in words) (strain DSM 6230): good growth substrates; Induction of L-carnitine amidase (in words) (L-carnitine amidase [2]): not induced |
| C[C@@H](O)[C@H](N)C(N)=O [1-Thr-NH2] | 0% | – | – | – | – |
| C[N+](C)(C)CC(=O)CC(=O)[O-] [Dehydrocarnitine] | – | 0.8 | 279 mU/mg | 837 mU/ml | Growth of the strain on the substance (in words) (strain DSM 6230): can not be metabolized or are metabolized very poorly; Induction of L-carnitine amidase (in words) (L-carnitine amidase [2]): induced; also recorded: Inductors; also recorded: induce the enzyme |
| N=C(N)NCCC[C@H](N)C(N)=O [L-Arg-NH2] | 0% | – | – | – | – |
| NC(=O)c1cccnc1 [Nicotinamide] | – | 0.7 | 28 mU/mg | 55 mU/ml | – |

| Structure (SMILES) | Rel. activity (%) (L-carnitine amidase [1]) | OD660 (strain DSM 6230) | Activity (mU/mg) (L-carnitine amidase [2]) | Activity (mU/ml) (L-carnitine amidase [2]) | also measured |
| --- | --- | --- | --- | --- | --- |
| NC(=O)[C@@H](N)Cc1c[nH]c2ccccc12 [L-Trp-NH2] | 0% | – | – | – | – |
| C[C@H](N)C(N)=O [L-Ala-NH2] | 0% | – | – | – | – |
| NC(=O)c1ccccc1 [Benzamide] | 0% | 0.3 | 0 mU/mg | 0 mU/ml | – |
| C=C(C)C(N)=O [Methacrylamide] | 0% | 0.8 | 76 mU/mg | 237 mU/ml | – |
| NC(=O)[C@@H](N)CO [L-Ser-NH2] | 0% | – | – | – | – |
| CC(C)CC(N)C(N)=O (centres unmarked) [Leu-NH2] | 0% | – | – | – | – |
| NC(=O)[C@@H](N)Cc1ccccc1 [L-phenylalanine amide] | 0% | 0.6 | 72 mU/mg | 172 mU/ml | – |
| C[N+](C)(C)CC(O)CC(=O)[O-] (racemic) [DL-carnitine] | – | 2.5 | 1255 mU/mg | 5773 mU/ml | Growth of the strain on the substance (in words) (strain DSM 6230): Good growth |
| C[N+](C)(C)CC(=O)[O-] [Glycine betaine] | – | 2.9 | 33 mU/mg | 183 mU/ml | Growth of the strain on the substance (in words) (strain DSM 6230): Good growth |
| CCCC(N)=O [Butyramide] | 0% | 0.9 | 18 mU/mg | 54 mU/ml | – |
| NC(=O)[C@H](N)Cc1ccccc1 [D-Phe-NH2] | 0% | – | – | – | – |
| NC(=O)[C@@H]1CCCN1 [L-proline amide] | 0% | 1.0 | 54 mU/mg | 250 mU/ml | – |
| NC(=O)[C@H](Cc1ccccc1)NC(=O)[C@@H](N)CC(=O)O [L-Asp-L-Phe-NH2] (H-Asp-Phe-NH2) | 0% | – | – | – | – |
| CC(C)C[C@H](N)C(N)=O [L-leucine amide] | 0% | 2.5 | 9 mU/mg | 34 mU/ml | Growth of the strain on the substance (in words) (strain DSM 6230): Good growth; Induction of L-carnitine amidase (in words) (L-carnitine amidase [2]): not induced |
| CC(O)C(N)=O (centres unmarked) [Lactic acid amide] | 0% | 0.8 | 28 mU/mg | 55 mU/ml | – |
| CSCC[C@H](N)C(N)=O [L-Met-NH2] | 0% | – | – | – | – |
| C[N+](C)(C)C[C@@H](O)CC(=O)[O-] [D-carnitine] | – | – | – | – | Conversion by whole cells (in words) [4]: not converted |
| NC(=O)C[C@H](N)C(N)=O [L-Asn-NH2] | 0% | – | – | – | – |
